Measured values from US8846670B2, “1,2,3,4-tetrahydro-pyrimido(1,2-a)pyrimidin-6-one derivatives, preparation thereof, and pharmaceutical use thereof” (priority 2009, dated 2014).
pIC50: −log10 of the molar value.

Assays:
Assay type in all cases: cell-based
[1] = system: translocation of the LC3 protein in Hela GFP-LC3 cells; experiment: Study of the translocation of the LC3 protein in Hela human cells, measured by image analysis cytometry (Test C, autophagy); settings: Homo sapiens, HeLa, 2 h, Hela GFP-LC3 cells with LC3 granulations, EBSS + 10 μM hydroxychloroquine, absolute IC50
[2] = system: AKT protein phosphorylated on serine 473 (P-AKT-S473) in PC3 human prostate carcinoma line; experiment: Study of pAKT expression in PC3 human prostate carcinoma cells measured by the MSD Multi-spot Biomarker Detection technique (Test B); settings: Homo sapiens, PC-3, P-AKT-S473 in PC3 cells, MSD sandwich immunoassay, 1 to 2 h incubation; absolute IC50, mean of 2 experiments
[3] = system: AKT protein phosphorylated on serine 473 (pAKT-S473) in PC3 human prostate carcinoma line; experiment: Study of pAKT expression in PC3 human prostate carcinoma cells measured by western blotting (Test A); settings: PC-3, 1 to 2 hours incubation, approximate absolute IC50, mean of two experiments
Experimental: The inhibitory activity of the molecules on AKT phosphorylation is measured either by western blotting using the technique described below, or by the MSD Multi-spot Biomarker detection technique from Meso Scale Discovery also described below. […] Study of pAKT Expression in Pc3Human Prostate Carcinoma Cells Measured by Western Blotting (Test A): This test is based on measuring the expression of the AKT protein phosphorylated on […]. […] On day 2, the cells are incubated in the presence or absence of the test products for 1 to 2 hours at 37° C. in the presence of 5% CO2. The molecules, diluted in dimethyl sulphoxide (DMSO Sigma #D2650), are added from a 10-times concentrated stock solution, the final percentage of DMSO being 0.1%. […] After this incubation, the cells are lysed for the preparation of the proteins. […] The lysate is centrifuged for 10 min at 6000 rpm. 155 μl of supernatant are recovered. 150 μl are incubated for denaturation for 5 min at 95° C. in the presence of 4× NuPAGE LDS Sample Buffer diluted 4-fold (InVitrogen ref NP0007) and of 10× NuPAGE Sample Reducing Agent diluted 10-fold (InVitrogen ref NP0009). These samples are then frozen at -20° C. […] The gel is then transferred on to an Invitrolon PVDF membrane (Invitrogen #LC2007) permeabilised beforehand for a few seconds in ethanol (Ethanol Fischer Scientific #E/0600DF/15). The transfer is carried out in a Biorad tank at 30 volts overnight or at 60 volts for 3 hours, in the presence of 20× NUPAGE Transfer Buffer diluted 20-fold (InVitrogen ref NP0006). The membrane is then saturated in saturating solution composed of TBS (10× Tris Buffered Saline, Sigma #T5912, diluted 10-fold), 0.1% Tween 20 (Sigma #P5927) and 3% BSA (Bovine Serum Albumin Fraction V, Sigma #A4503) for 6 h after overnight transfer or else for 1 h after transfer for a period of 3 h. […] Two rinses for 5 min in washing solution composed of TBS and 0.1% Tween 20 are carried out before hybridisation of the secondary antibodies. The secondary antibodies are diluted to 1/10000th for the rabbit anti-Mouse IgG HRP antibody ([…] Promega) and to 1/10000th for the goat anti-Rabbit IgG HRP antibody ([…] Promega) in saturating solution, and then shaken for 1 h at ambient temperature. Two rinses for 30 min in washing solution are carried out and then a rinse for 5 min in H2O is carried out in order to eliminate the remaining Tween 20. […] The luminescence is read with the FujiFilm device (Ray Test). The FUJI device measures the total luminescence signal obtained (AU) for each band selected. It then subtracts the background noise (BG) proportional to the size of the band selected (Area), said background noise being calculated from a specific background noise band, with a view to obtaining the specific signal (AU-BG) for each band. The band obtained in the absence of product and in the presence of 0.1% DMSO is considered to be the 100% signal. The software calculates the % specific activity (Ratio) obtained for each band selected as a function of this 100% signal. The percentage inhibition is calculated for each concentration according to the formula (100%-Ratio). Two independent experiments make it possible to calculate the mean of the percentages of inhibition obtained at a given concentration for the products tested only at one concentration. […] Two independent experiments make it possible to calculate the mean of the IC50 values.

[4] = system: P. falciparum (highly chloroquine-resistant strain Fcm29-Cameroon); experiment: Antimalarial activity test (radioactive micromethod of Desjardins); settings: Plasmodium falciparum, Erythrocyte, infected human erythrocytes, 48 h, tritiated hypoxanthine incorporation
Experimental: Antimalarial Activity Test
The P. falciparum strains are cultured in solutions of RPM! […] For each assay, the parasites are incubated with selected concentrations of drugs for 48 h at 37° C. in a humid atmosphere and at 5% CO2. Artemisinin, artesunate and also chloroquine diphosphate are used as reference molecules. The first dilution of the drug is prepared at 1 mg/ml in dimethyl sulphoxide. The range of successive daughter solution dilutions is also prepared in dimethyl sulphoxide. […] These dilutions are then added to the parasites in culture in the microplates. […] The growth of the parasites is measured by incorporation of tritiated hypoxanthine (added 24 h after the beginning of the exposure to the drug) compared with the incorporation in the absence of drug.

| pIC50 [1] | pIC50 [2] | pIC50 [3] | SMILES | inhibition at 0.1 µM [4] [%] | inhibition at 1 µM [4] [%] |
| --- | --- | --- | --- | --- | --- |
| < 6.00 | 8.15 | 5.57 | O=c1cc(N2CCOCC2)nc2n1CC[C@@H](C(F)(F)F)N2c1ccccc1F [Example 15, (8S)-9-(2-fluorophenyl)-2-(morpholin-4-yl)-8-(trifluoromethyl)-6,7,8,9-tetrahydro-4H-pyrimido[1,2-a]pyrimidin-4-one] |  |  |
| 6.24 |  | 6.58 | O=c1cc(N2CCOCC2)nc2n1CC[C@@H](C(F)(F)F)N2Cc1ccccc1 [Example 4, (S)-9-benzyl-2-morpholin-4-yl-8-trifluoromethyl-6,7,8,9-tetrahydropyrimido[1,2-a]pyrimidin-4-one] | 19 | 97 |
| 7.70 |  | 7.82 | O=c1cc(N2CCOCC2)nc2n1CC[C@@H](C(F)(F)F)N2CCc1ccccc1 [Example 3, (S)-2-morpholin-4-yl-9-phenethyl-8-trifluoromethyl-6,7,8,9-tetrahydropyrimido[1,2-a]pyrimidin-4-one] |  |  |
| 6.36 |  | 5.18 | O=c1cc(N2CCOCC2)nc2n1CC[C@@H](C(F)(F)F)N2c1ccccc1 [Example 12, (8S)-2-(morpholin-4-yl)-9-phenyl-8-(trifluoromethyl)-6,7,8,9-tetrahydro-4H-pyrimido[1,2-a]pyrimidin-4-one] |  | 59 |
| 6.60 |  | 6.45 | C[C@@H](c1ccc(Br)cc1)N1c2nc(N3CCOCC3)cc(=O)n2CC[C@H]1C(F)(F)F (single isomer, unassigned) [Example 10, (8S)-9-[R1R or 1S)-1-(4-bromophenyl)ethyl]-2-(morpholin-4-yl)-8-(trifluoromethyl)-6,7,8,9-tetrahydro-4H-pyrimido[1,2-a]pyrimidin-4-one] |  |  |
| < 6.00 |  | 6.47 | O=C(c1ccccc1)N1c2nc(N3CCOCC3)cc(=O)n2CC[C@H]1C(F)(F)F [Example 18, (S)-9-Benzoyl-2-morpholin-4-yl-8-trifluoromethyl-6,7,8,9-tetrahydropyrimido[1,2-a]pyrimidin-4-one] |  |  |
| 7.80 |  | 6.50 | COc1ccc(CCN2c3nc(N4CCOCC4)cc(=O)n3CCC2C(F)(F)F)cc1 (racemic) [Example 2, (R,S)-9-[2-(4-methoxyphenyl)ethyl]-2-morpholin-4-yl-8-trifluoromethyl-6,7,8,9-tetrahydropyrimido[1,2-a]pyrimidin-4-one] |  |  |
| 6.92 |  | 6.46 | O=c1cc(N2CCOCC2)nc2n1CC[C@@H](C(F)(F)F)N2Cc1ccc(F)cc1 [Example 17, (8S)-9-(4-fluorobenzyl)-2-(morpholin-4-yl)-8-(trifluoromethyl)-6,7,8,9-tetrahydro-4H-pyrimido[1,2-a]pyrimidin-4-one] |  |  |
| 7.96 |  | 7.82 | COc1ccc(CCN2c3nc(N4CCOCC4)cc(=O)n3CC[C@H]2C(F)(F)F)cc1 [Example 1, (S)-9-[2-(4-methoxyphenyl)ethyl]-2-morpholin-4-yl-8-trifluoromethyl-6,7,8,9-tetrahydropyrimido[1,2-a]pyrimidin-4-one] | 79 | 99 |
| 6.73 |  | 7.39 | C[C@H](c1cccc(F)c1)N1c2nc(N3CCOCC3)cc(=O)n2CC[C@H]1C(F)(F)F (single isomer, unassigned) [Example 16, (8S)-9-[(1R or 1S)-1-(3-fluorophenyl)ethyl]-2-(morpholin-4-yl)-8-(trifluoromethyl)-6,7,8,9-tetrahydro-4H-pyrimido[1,2-a]pyrimidin-4-one] |  |  |
